The values below come from ChEMBL document CHEMBL5729275 (2022).

A value given as a limit tells only on which side of the number the result lay.

This experiment is described as follows: RSV-A Assay : Hep-2 cells, (originally derived from tumors grown in irradiated-cortisonised weanling rats that had been injected with epidermoid carcinoma tissue from a person's larynx, but later found to be indistinguishable from HeLa cells by PCR DNA analysis), were used for the culturing of genotype A, “Long” strain RSV. Flasks were inoculated with RSV and viral stocks were collected once cytopathic effect (CPE) was greater than 90%. Viral stocks in 25% sucrose media were snap frozen using liquid nitrogen to increase viral stability. Viral stock titers were quantified by tissue culture infectious dose 50% (TCID50) using 8,000 cells per well and 3-fold viral dilutions across a 96-well plate, cultured for 4 days. Viral stock titers were also quantified by a plaque forming unit assay, as described elsewhere.Following extensive parameter testing, the final assay is run as follows: Hep-2 cells are seeded into the inner 60 wells of a 96-well plate at 8,000 cells per well in a volume of 50 μL using Growth Media (DMEM without phenol red, 1% L-Glut, 1% Penn/Strep, 1% nonessential amino acids, 10% heat-inactivated FBS). 2-fold serial dilutions of control and test compounds are added to the wells in duplicate in a total volume of 25 μL. Viral stock is then added to the wells at a multiplicity of infection (MOI) of 0.1 in a volume of 25 μL, bringing the total volume of each well to 100 μL. The MOI is calculated using the PFU/mL, or TCID50 if unavailable. Each 96-well plate has a control column of 6 wells with cells and virus but no compound (negative control, max CPE), a column with cells but no compound or virus (positive control, minimum CPE), and a column with no cells or virus or compound (background plate/reagent control). The control wells with cells but no virus are given an additional […], of growth media containing an equal quantity of sucrose as those wells receiving the viral stock in order to keep consistent in media and volume conditions. The outer wells of the plate are filled with 125 μL of moat media (DMEM, 1% Penn/Strep) to act as a thermal and evaporative moat around the test wells. Following a 5-day incubation period, the plates are read using ATPlite (50 uL added per well), which quantifies the amount of ATP (a measure of cell health) present in each well. Assay plates are read using the Envision luminometer.

One may read the EC50 as the concentration at which the effect is half-maximal. In the case of `N[C@@]1(C(F)(F)F)COc2c1cc([C@@](O)(CNC(=O)c1cc(OC3CC3)c3nn(C4CC4)cc3c1)C1CC1)nc2-c1ccc(F)c(Cl)c1`, the EC50 is under 200 nM. Turning to `C[C@](O)(CNC(=O)c1ccc(OC2CC2)c(OC2CC2)c1)c1cc2c(c(-c3ccc(F)cc3)n1)OC[C@@]2(N)C(F)(F)F`, the concentration for a half-maximal effect (EC50) is under 200 nM. Consider `COCCOc1ccc(C(=O)NC[C@](O)(c2cc3c(c(-c4ccc(F)cc4)n2)OC[C@@]3(N)C(F)(F)F)C(F)(F)F)cc1OC`, for which the EC50 was over 200 nM. Regarding `N[C@@]1(C(F)(F)F)COc2c1cc([C@@](O)(CNC(=O)c1ccc(OC3CC3)c(OC3CC3)c1)C1CC1)nc2-c1ccc(F)cc1`, the EC50 was under 200 nM. In the case of `COC(=O)N[C@@]1(C(F)(F)F)COc2c1cc([C@@](C)(O)CNC(=O)c1ccc(OC3CC3)c(OC)c1)nc2-c1ccc(F)cc1`, the 50% effective concentration (EC50) was under 200 nM. Regarding `COc1cc(C(=O)NC[C@](O)(c2cc3c(c(-c4ccc(F)cc4)n2)OC[C@]3(N)C(F)(F)F)C(F)(F)F)ccc1OC1CC1`, the 50% effective concentration (EC50) was under 200 nM. Turning to `COc1cc(C(=O)NC[C@@](O)(CO)c2cc3c(c(-c4ccc(F)cc4)n2)OC[C@@]3(N)C(F)(F)F)ccc1OC1CC1`, the EC50 was under 200 nM. In the case of `COC(=O)N[C@@]1(C(F)(F)F)COc2c1cc([C@@](O)(CNC(=O)c1ccc(OC3CC3)c(OC)c1)C(F)(F)F)nc2-c1ccc(F)cc1` it was over 200 nM; in that of `COc1cc(C(=O)NC[C@H](O)c2cc3c(c(-c4ccc(F)cc4)n2)OC[C@@]3(N)C(F)(F)F)ccc1OC1CC1`, over 200 nM; in that of `COc1cc(C(=O)NC[C@](O)(c2cc3c(c(-c4ccc(F)cc4)n2)OC[C@]3(N)C(F)(F)F)C(F)(F)F)cc2cccnc12`, under 200 nM.

With `N[C@@]1(C(F)(F)F)COc2c1cc([C@@](O)(CNC(=O)c1cc(OC3CC3)c3nc(Cl)ccc3c1)C1CC1)nc2-c1ccc(F)cc1`, the half-maximal effective concentration (EC50) is under 200 nM. As to `COc1cc(C(=O)NC[C@](C)(O)c2cc3c(c(-c4ccc(F)c(F)c4)n2)OC[C@@]3(N)C(F)(F)F)ccc1OC1CC1`, the EC50 was under 200 nM. In the case of `COc1cc(C(=O)NC[C@](C)(O)c2cc3c(c(-c4ccc(F)cc4)n2)OC[C@@]3(N)C(F)(F)F)cc2cccnc12` it was under 200 nM.

As for `COc1cc(C(=O)NC[C@](O)(c2cc3c(c(-c4ccc(F)cc4)n2)OC[C@@]3(N)C(F)(F)F)C2CC2)cc2sc(N)nc12`, the concentration giving a half-maximal response (EC50) is under 200 nM. Consider `COc1cc(C(=O)NC[C@](O)(c2cc3c(c(-c4ccc(F)cc4)n2)OC[C@@]3(N)C(F)(F)F)C(F)(F)F)ccc1C(F)(F)F`, for which the EC50 is over 200 nM.

For the compound `COc1cc(C(=O)NC[C@](O)(c2cc3c(c(-c4ccc(F)cc4)n2)OC[C@@]3(N)C(F)(F)F)C(F)(F)F)nc2ccccc12`, the half-maximal effective concentration (EC50) is over 200 nM. Then `COc1cc(C(=O)NC[C@](O)(c2cc3c(c(-c4ccc(F)c(Cl)c4)n2)OC[C@@]3(N)C(F)(F)F)C2CC2)ccc1OC1CC1`, with under 200 nM.

`COc1cc(C(=O)NC[C@](O)(c2cc3c(c(-c4ccc(F)cc4)n2)OC[C@@]3(N)C(F)(F)F)C(F)(F)F)cc2cccnc12`: the EC50 is under 200 nM. Consider `N[C@@]1(C(F)(F)F)COc2c1cc([C@@](O)(CNC(=O)c1cc(OC3CC3)c3c(ccc[n+]3[O-])c1)C1CC1)nc2-c1ccc(F)cc1`, for which the EC50 is over 200 nM. Then `COc1cc(C(=O)NCC(C)c2cc3c(c(-c4ccc(F)c(F)c4)n2)OC[C@@]3(N)C(F)(F)F)ccc1OC1CC1` (stereo partly specified), with over 200 nM; and `COc1cc(C(=O)NC[C@](C)(O)c2cc3c(c(-c4ccc(F)cc4)n2)OC[C@@]3(N)C(F)(F)F)ccc1OC1CC1`, with under 200 nM; and `Cc1ccc2cc(C(=O)NC[C@](O)(c3cc4c(c(-c5ccc(F)cc5)n3)OC[C@@]4(N)C(F)(F)F)C3CC3)cc(OC3CC3)c2n1`, with under 200 nM. With `COc1cnc(C(=O)NC[C@](O)(c2cc3c(c(-c4ccc(F)cc4)n2)OC[C@@]3(N)C(F)(F)F)C(F)(F)F)cc1OC`, the EC50 is over 200 nM.

With `Cn1cc2cc(C(=O)NC[C@](O)(c3cc4c(c(-c5ccc(F)cc5)n3)OC[C@@]4(N)C(F)(F)F)C3CC3)cc(F)c2n1`, the 50% effective concentration (EC50) is under 200 nM. As to `N[C@@]1(C(F)(F)F)COc2c1cc([C@@](O)(CNC(=O)c1cc(OC3CC3)c3ncccc3c1)C1CC1)nc2-c1ccc(F)cc1`, the EC50 was under 200 nM.

For `COC[C@](O)(CNC(=O)c1ccc(OC2CC2)c(OC)c1)c1cc2c(c(-c3ccc(F)cc3)n1)OC[C@@]2(N)C(F)(F)F`, the EC50 is under 200 nM. Consider `COc1cc(C(=O)NC[C@](O)(c2cc3c(c(-c4ccc(F)cc4)n2)OC[C@]3(N)C(F)(F)F)C(F)(F)F)ccc1OCCO`, for which the EC50 is over 200 nM. In the case of `COc1cc(C(=O)NC[C@](O)(c2cc3c(c(-c4ccc(F)cc4)n2)OC[C@@]3(N)C(F)(F)F)C(F)(F)F)ccc1OCCO` it was over 200 nM; in that of `COc1cc(C(=O)NC[C@](O)(c2cc3c(c(-c4ccc(F)cc4)n2)OC[C@@]3(N)C(F)(F)F)C2CC2)cc2cn(C)nc12`, under 200 nM.

Turning to `COc1cc(C(=O)NC[C@](O)(c2cc3c(c(-c4ccc(F)cc4)n2)OC[C@@]3(N)C(F)(F)F)C(F)(F)F)ccc1OC1CC1`, the EC50 is under 200 nM. Turning to `N[C@@]1(C(F)(F)F)COc2c1cc([C@@](O)(CNC(=O)c1cc(OC3CC3)c3[nH]c(=O)ccc3c1)C1CC1)nc2-c1ccc(F)cc1`, the EC50 is over 200 nM. In the case of `N[C@@]1(C(F)(F)F)COc2c1cc([C@@](O)(CNC(=O)c1ccc(OC3CC3)c(OC3CC3)c1)C1CC1)nc2-c1ccc(F)c(F)c1`, the EC50 was under 200 nM. Then `COc1cc(C(=O)NC[C@](O)(c2cc3c(c(-c4ccc(F)cc4)n2)OC[C@@]3(NC(=O)COC(C)=O)C(F)(F)F)C(F)(F)F)ccc1OC1CC1`, with under 200 nM; and `COc1cc(C(=O)NC[C@](C)(O)c2cc3c(c(-c4ccc(F)cc4)n2)OC[C@@]3(NC(=N)NC#N)C(F)(F)F)ccc1OC1CC1`, with under 200 nM; and `Nc1nc2ccc(C(=O)NC[C@](O)(c3cc4c(c(-c5ccc(F)cc5)n3)OC[C@@]4(N)C(F)(F)F)C3CC3)cc2s1`, with under 200 nM. Consider `C[C@](O)(CNC(=O)c1ccc(OC2CC2)c(OC2CC2)c1)c1cc2c(c(-c3ccc(F)c(F)c3)n1)OC[C@@]2(N)C(F)(F)F`, for which the EC50 is under 200 nM.

Take `COc1cc(C(=O)NC[C@](O)(c2cc3c(c(-c4ccc(F)cc4)n2)OC[C@@]3(NC(=O)CO)C(F)(F)F)C(F)(F)F)ccc1OC1CC1`: the EC50 was under 200 nM.

`N[C@@]1(C(F)(F)F)COc2c1cc([C@@](O)(CNC(=O)c1ccc(OC3CC3)c(OC3CC3)c1)C1CC1)nc2-c1ccc(F)c(Cl)c1`: the EC50 was under 200 nM.

Turning to `COc1cc(C(=O)NC[C@@](O)(c2cc3c(c(-c4ccc(F)cc4)n2)OC[C@]3(N)C(F)(F)F)C(F)(F)F)ccc1OC1CC1`, the EC50 is over 200 nM. Turning to `COc1cccc2cc(C(=O)NC[C@](O)(c3cc4c(c(-c5ccc(F)cc5)n3)OC[C@@]4(N)C(F)(F)F)C(F)(F)F)cnc12`, the EC50 is over 200 nM. Then `COc1cc(C(=O)NC[C@](O)(c2cc3c(c(-c4ccc(F)cc4)n2)OC[C@@]3(N)C(F)(F)F)C2CC2)ccc1OC1CC1`, with under 200 nM; and `N[C@@]1(C(F)(F)F)COc2c1cc([C@@](O)(CNC(=O)c1cc(OC3CC3)c3nn(C4CC4)cc3c1)C1CC1)nc2-c1ccc(F)cc1`, with under 200 nM; and `COc1cc(C(=O)NC[C@](O)(c2cc3c(c(-c4ccc(F)cc4)n2)OC[C@@]3(N)C(F)(F)F)C(F)(F)F)ccc1OCC(C)C`, with over 200 nM. In the case of `COc1cc(C(=O)NC[C@@](O)(c2cc3c(c(-c4ccc(F)cc4)n2)OC[C@]3(N)C(F)(F)F)C(F)(F)F)ccc1OCCO`, the half-maximal effective concentration (EC50) was over 200 nM. With `COc1cc(C(=O)NC[C@@](O)(CF)c2cc3c(c(-c4ccc(F)cc4)n2)OC[C@@]3(N)C(F)(F)F)ccc1OC1CC1`, the EC50 was under 200 nM. Then `COC[C@](O)(CNC(=O)c1cc(OC2CC2)c2ncccc2c1)c1cc2c(c(-c3ccc(F)cc3)n1)OC[C@@]2(N)C(F)(F)F`, with under 200 nM; and `Nc1nc2c(F)cc(C(=O)NC[C@](O)(c3cc4c(c(-c5ccc(F)cc5)n3)OC[C@@]4(N)C(F)(F)F)C3CC3)cc2s1`, with under 200 nM; and `COc1cc(C(=O)NC[C@](C)(O)c2cc3c(c(-c4ccc(F)cc4)n2)OC[C@@]3(NS(=O)(=O)C(C)(C)C)C(F)(F)F)cc2cccnc12`, with over 200 nM. For the compound `N[C@@]1(C(F)(F)F)COc2c1cc([C@@](O)(CNC(=O)c1cc(OC3CC3)c3ncccc3c1)C1CC1)nc2-c1ccc(F)c(Cl)c1`, the EC50 is under 200 nM.

`N[C@@]1(C(F)(F)F)COc2c1cc([C@](O)(CO)CNC(=O)c1cc(OC3CC3)c3ncccc3c1)nc2-c1ccc(F)cc1`: the EC50 is over 200 nM. For the compound `COc1cc(C(=O)NC[C@](O)(c2cc3c(c(-c4ccc(F)cc4)n2)OC[C@@]3(N)C(F)(F)F)C2CC2)cc2cccnc12`, the concentration giving a half-maximal response (EC50) is under 200 nM. For `COc1cc(C(=O)NC[C@](O)(c2cc3c(c(-c4ccc(F)cc4)n2)OC[C@@]3(N)C(F)(F)F)C(C)(C)C)ccc1OC1CC1`, the EC50 is over 200 nM. Regarding `Cn1cc2cc(C(=O)NC[C@](O)(c3cc4c(c(-c5ccc(F)cc5)n3)OC[C@@]4(N)C(F)(F)F)C3CC3)cc(OC3CC3)c2n1`, the EC50 was under 200 nM.

For `N[C@@]1(C(F)(F)F)COc2c1cc([C@@](O)(CNC(=O)c1cc(OC3CC3)c3ncccc3c1)C1COC1)nc2-c1ccc(F)cc1`, the half-maximal effective concentration (EC50) was over 200 nM. On to `C[C@](O)(CNC(=O)c1cc(OC2CC2)c2ncccc2c1)c1cc2c(c(-c3ccc(F)c(Cl)c3)n1)OC[C@@]2(N)C(F)(F)F`, for which the concentration giving a half-maximal response (EC50) was over 200 nM. Then `COc1cc(F)c(C(=O)NC[C@](O)(c2cc3c(c(-c4ccc(F)cc4)n2)OC[C@@]3(N)C(F)(F)F)C(F)(F)F)cc1OC`, with over 200 nM.
